From patent US8580918B2, “Peptidic GLP-2 agonists” (Ferring B.V., priority 2009, dated 2013)
Where a SMILES comes first, the peptide text is derived from it. [ ]: non-standard residue; d: D form. dPhe(3-Cl) = N[C@H](Cc1cccc(Cl)c1)C(=O)O; d2Thi = N[C@H](Cc1cccs1)C(=O)O; d3Thi = N[C@H](Cc1ccsc1)C(=O)O; Nle = CCCC[C@H](N)C(=O)O

Assay: Pharmacokinetics in rats after intravenous bolus injection (systemic clearance)
Assay type: in vivo
Conditions: rat, plasma, 0.2 mg FB/kg, adult male Sprague-Dawley rats, i.v. bolus, dose 0.20 mg FB/kg, read-out: CL (ml/kg/min) Average
Summary of the method: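 Systemic clearance from noncompartmental analysis as dose per kg over trapezoidal AUC extrapolated to infinity, mean and SD across animals. Plasma (K2EDTA) levels by LC/MS/MS after single IV jugular-vein bolus, 0.1-1.0 mg/kg, in 3-4 cannulated male Sprague-Dawley rats.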
Molecule `CCCC[C@H](NC(=O)[C@H](CCC(=O)O)NC(=O)[C@H](CC(=O)O)NC(=O)[C@H](CO)NC(=O)[C@H](Cc1ccccc1)NC(=O)[C@H](CO)NC(=O)CNC(=O)[C@H](CC(=O)O)NC(=O)CNC(=O)[C@@H](N)Cc1c[nH]cn1)C(=O)N[C@H](Cc1ccsc1)C(=O)N[C@H](C(=O)N[C@H](C(=O)N[C@@H](CC(C)C)C(=O)N[C@@H](CC(=O)O)C(=O)N[C@@H](CC(N)=O)C(=O)N[C@@H](CC(C)C)C(=O)N[C@@H](C)C(=O)N[C@@H](C)C(=O)N[C@@H](CCCNC(=N)N)C(=O)N[C@@H](CC(=O)O)C(=O)N[C@@H](Cc1ccccc1)C(=O)N[C@H](C(=O)N[C@@H](CC(N)=O)C(=O)N[C@@H](Cc1c[nH]c2ccccc12)C(=O)N[C@@H](CC(C)C)C(=O)N[C@H](C(=O)N[C@@H](CCC(N)=O)C(=O)N[C@H](C(=O)N[C@@H](CCCCN)C(N)=O)[C@@H](C)O)[C@@H](C)CC)[C@@H](C)CC)[C@@H](C)CC)[C@@H](C)O` [Compound 42, [Gly2,Nle10,D-3-Thi11] hGLP-2 (1-30)-NH2] (H-HGDGSFSDE[Nle][d3Thi]TILDNLAARDFINWLIQTK-NH2) has a clearance of 1.3 mL/kg/min. With `CCCC[C@H](NC(=O)[C@H](CCC(=O)O)NC(=O)[C@H](CC(=O)O)NC(=O)[C@H](CO)NC(=O)[C@H](Cc1ccccc1)NC(=O)[C@H](CO)NC(=O)CNC(=O)[C@H](CC(=O)O)NC(=O)CNC(=O)[C@@H](N)Cc1c[nH]cn1)C(=O)N[C@H](Cc1cccc(Cl)c1)C(=O)N[C@H](C(=O)N[C@H](C(=O)N[C@@H](CC(C)C)C(=O)N[C@@H](CC(=O)O)C(=O)N[C@@H](CC(N)=O)C(=O)N[C@@H](CC(C)C)C(=O)N[C@@H](C)C(=O)N[C@@H](C)C(=O)N[C@@H](CCCNC(=N)N)C(=O)N[C@@H](CC(=O)O)C(=O)N[C@@H](Cc1ccccc1)C(=O)N[C@H](C(=O)N[C@@H](CC(N)=O)C(=O)N[C@@H](Cc1c[nH]c2ccccc12)C(=O)N[C@@H](CC(C)C)C(=O)N[C@H](C(=O)N[C@@H](CCC(N)=O)C(=O)N[C@H](C(=O)N[C@@H](CCCCN)C(N)=O)[C@@H](C)O)[C@@H](C)CC)[C@@H](C)CC)[C@@H](C)CC)[C@@H](C)O` [Compound 44, [Gly2,Nle10,D-3-Cpa11] hGLP-2 (1-30)-NH2] (H-HGDGSFSDE[Nle][dPhe(3-Cl)]TILDNLAARDFINWLIQTK-NH2) the clearance was 0.32 mL/kg/min. `CCCC[C@H](NC(=O)[C@H](CCC(=O)O)NC(=O)[C@H](CC(=O)O)NC(=O)[C@H](CO)NC(=O)[C@H](Cc1ccccc1)NC(=O)[C@H](CO)NC(=O)CNC(=O)[C@H](CC(=O)O)NC(=O)CNC(=O)[C@@H](N)Cc1c[nH]cn1)C(=O)N[C@H](Cc1cccs1)C(=O)N[C@H](C(=O)N[C@H](C(=O)N[C@@H](CC(C)C)C(=O)N[C@@H](CC(=O)O)C(=O)N[C@@H](CC(C)C)C(=O)N[C@@H](CC(C)C)C(=O)N[C@@H](C)C(=O)N[C@@H](C)C(=O)N[C@@H](CCCNC(=N)N)C(=O)N[C@@H](CC(=O)O)C(=O)N[C@@H](Cc1ccccc1)C(=O)N[C@H](C(=O)N[C@@H](CC(N)=O)C(=O)N[C@@H](Cc1c[nH]c2ccccc12)C(=O)N[C@@H](CC(C)C)C(=O)N[C@H](C(=O)N[C@@H](CCC(N)=O)C(=O)N[C@H](C(=O)N[C@@H](CCCCN)C(N)=O)[C@@H](C)O)[C@@H](C)CC)[C@@H](C)CC)[C@@H](C)CC)[C@@H](C)O` [Compound 45, [Gly2,Nle10,D-Thi11,Leu16] hGLP-2 (1-30)-NH2] (H-HGDGSFSDE[Nle][d2Thi]TILDLLAARDFINWLIQTK-NH2) gave a clearance of 0.33 mL/kg/min. `CCCC[C@H](NC(=O)[C@H](CCC(=O)O)NC(=O)[C@H](CC(=O)O)NC(=O)[C@H](CO)NC(=O)[C@H](Cc1ccccc1)NC(=O)[C@H](CO)NC(=O)CNC(=O)[C@H](CC(=O)O)NC(=O)CNC(=O)[C@@H](N)Cc1cnc[nH]1)C(=O)N[C@H](Cc1cccs1)C(=O)N[C@H](C(=O)N[C@H](C(=O)N[C@@H](CC(C)C)C(=O)N[C@@H](CC(=O)O)C(=O)N[C@@H](Cc1ccccc1)C(=O)N[C@@H](CC(C)C)C(=O)N[C@@H](C)C(=O)N[C@@H](C)C(=O)N[C@@H](CCCNC(=N)N)C(=O)N[C@@H](CC(=O)O)C(=O)N[C@@H](Cc1ccccc1)C(=O)N[C@H](C(=O)N[C@@H](CC(N)=O)C(=O)N[C@@H](Cc1c[nH]c2ccccc12)C(=O)N[C@@H](CC(C)C)C(=O)N[C@H](C(=O)N[C@@H](CCC(N)=O)C(=O)N[C@H](C(=O)N[C@@H](CCCCN)C(N)=O)[C@@H](C)O)[C@@H](C)CC)[C@@H](C)CC)[C@@H](C)CC)[C@@H](C)O` [Compound 46, [Gly2,Nle10,D-Thi11,Phe16] hGLP-2 (1-30)-NH2] (H-HGDGSFSDE[Nle][d2Thi]TILDFLAARDFINWLIQTK-NH2) gave a clearance of 0.26 mL/kg/min. With `CCCC[C@H](NC(=O)[C@H](CCC(=O)O)NC(=O)[C@H](CC(=O)O)NC(=O)[C@H](CO)NC(=O)[C@H](Cc1ccccc1)NC(=O)[C@H](CO)NC(=O)CNC(=O)[C@H](CC(=O)O)NC(=O)CNC(=O)[C@@H](N)Cc1c[nH]cn1)C(=O)N[C@H](Cc1ccccc1)C(=O)N[C@H](C(=O)N[C@H](C(=O)N[C@@H](CC(C)C)C(=O)N[C@@H](CC(=O)O)C(=O)N[C@@H](Cc1ccccc1)C(=O)N[C@@H](CC(C)C)C(=O)N[C@@H](C)C(=O)N[C@@H](C)C(=O)N[C@@H](CCCNC(=N)N)C(=O)N[C@@H](CC(=O)O)C(=O)N[C@@H](Cc1ccccc1)C(=O)N[C@H](C(=O)N[C@@H](CC(N)=O)C(=O)N[C@@H](Cc1c[nH]c2ccccc12)C(=O)N[C@@H](CC(C)C)C(=O)N[C@H](C(=O)N[C@@H](CCC(N)=O)C(=O)N[C@H](C(=O)N[C@@H](CCCCN)C(N)=O)[C@@H](C)O)[C@@H](C)CC)[C@@H](C)CC)[C@@H](C)CC)[C@@H](C)O` [Compound 47, [Gly2,Nle10,D-Phe11,Phe16] hGLP-2 (1-30)-NH2] (H-HGDGSFSDE[Nle][dF]TILDFLAARDFINWLIQTK-NH2) the clearance was 0.3 mL/kg/min. Molecule `CCCC[C@H](NC(=O)[C@H](CCC(=O)O)NC(=O)[C@H](CC(=O)O)NC(=O)[C@H](CO)NC(=O)[C@H](Cc1ccccc1)NC(=O)[C@H](CO)NC(=O)CNC(=O)[C@H](CC(=O)O)NC(=O)CNC(=O)[C@@H](N)Cc1cnc[nH]1)C(=O)N[C@H](Cc1ccccc1)C(=O)N[C@H](C(=O)N[C@H](C(=O)N[C@@H](CC(C)C)C(=O)N[C@@H](CC(=O)O)C(=O)N[C@@H](CC(C)C)C(=O)N[C@@H](CC(C)C)C(=O)N[C@@H](C)C(=O)N[C@@H](C)C(=O)N[C@@H](CCCNC(=N)N)C(=O)N[C@@H](CC(=O)O)C(=O)N[C@@H](Cc1ccccc1)C(=O)N[C@H](C(=O)N[C@@H](CC(N)=O)C(=O)N[C@@H](Cc1c[nH]c2ccccc12)C(=O)N[C@@H](CC(C)C)C(=O)N[C@H](C(=O)N[C@@H](CCC(N)=O)C(=O)N[C@H](C(=O)N[C@@H](CCCCN)C(N)=O)[C@@H](C)O)[C@@H](C)CC)[C@@H](C)CC)[C@@H](C)CC)[C@@H](C)O` [Compound 48, [Gly2,Nle10,D-Phe11,Leu16] hGLP-2 (1-30)-NH2] (H-HGDGSFSDE[Nle][dF]TILDLLAARDFINWLIQTK-NH2) has a clearance of 0.37 mL/kg/min. Molecule `CCCC[C@H](NC(=O)[C@H](CCC(=O)O)NC(=O)[C@H](CC(=O)O)NC(=O)[C@H](CO)NC(=O)[C@H](Cc1ccccc1)NC(=O)[C@H](CO)NC(=O)CNC(=O)[C@H](CC(=O)O)NC(=O)CNC(=O)[C@@H](N)Cc1c[nH]cn1)C(=O)N[C@H](Cc1ccccc1)C(=O)N[C@H](C(=O)N[C@H](C(=O)N[C@@H](CC(C)C)C(=O)N[C@@H](CC(=O)O)C(=O)N[C@@H](Cc1ccc(O)cc1)C(=O)N[C@@H](CC(C)C)C(=O)N[C@@H](C)C(=O)N[C@@H](C)C(=O)N[C@@H](CCCNC(=N)N)C(=O)N[C@@H](CC(=O)O)C(=O)N[C@@H](Cc1ccccc1)C(=O)N[C@H](C(=O)N[C@@H](CC(N)=O)C(=O)N[C@@H](Cc1c[nH]c2ccccc12)C(=O)N[C@@H](CC(C)C)C(=O)N[C@H](C(=O)N[C@@H](CCC(N)=O)C(=O)N[C@H](C(=O)N[C@@H](CCCCN)C(N)=O)[C@@H](C)O)[C@@H](C)CC)[C@@H](C)CC)[C@@H](C)CC)[C@@H](C)O` [Compound 49, [Gly2,Nle10,D-Phe11,Tyr16] hGLP-2 (1-30)-NH2] (H-HGDGSFSDE[Nle][dF]TILDYLAARDFINWLIQTK-NH2) has a clearance of 0.48 mL/kg/min. With `CCCC[C@H](NC(=O)[C@H](CCC(=O)O)NC(=O)[C@H](CC(=O)O)NC(=O)[C@H](CO)NC(=O)[C@H](Cc1ccccc1)NC(=O)[C@H](CO)NC(=O)CNC(=O)[C@H](CC(=O)O)NC(=O)CNC(=O)[C@@H](N)Cc1c[nH]cn1)C(=O)N[C@H](Cc1cccs1)C(=O)N[C@H](C(=O)N[C@H](C(=O)N[C@@H](CC(C)C)C(=O)N[C@@H](CC(=O)O)C(=O)N[C@@H](Cc1ccc(O)cc1)C(=O)N[C@@H](CC(C)C)C(=O)N[C@@H](C)C(=O)N[C@@H](C)C(=O)N[C@@H](CCCNC(=N)N)C(=O)N[C@@H](CC(=O)O)C(=O)N[C@@H](Cc1ccccc1)C(=O)N[C@H](C(=O)N[C@@H](CC(N)=O)C(=O)N[C@@H](Cc1c[nH]c2ccccc12)C(=O)N[C@@H](CC(C)C)C(=O)N[C@H](C(=O)N[C@@H](CCC(N)=O)C(=O)N[C@H](C(=O)N[C@@H](CCCCN)C(N)=O)[C@@H](C)O)[C@@H](C)CC)[C@@H](C)CC)[C@@H](C)CC)[C@@H](C)O` [Compound 50, [Gly2,Nle10,D-Thi11,Tyr16] hGLP-2 (1-30)-NH2] (H-HGDGSFSDE[Nle][d2Thi]TILDYLAARDFINWLIQTK-NH2) the clearance was 0.52 mL/kg/min.
